Laboratory results published in PMC8466554, “Heteroaryl-Ethylenes as New Lead Compounds in the Fight against High Priority Bacterial Strains” (Antibiotics, 2021).
Where two headings read alike, the source gives them in different places.

How the values were obtained:
CaCo-2 cells = assay: MTT cytotoxicity assay; type: cell-based, human; conditions: 24 h of incubation relative to untreated controls
Protocol: To evaluate the biological activity of the PBn series, compounds were screened for toxicity against the colon-rectal cancer cell line CaCo-2 (ATCC HTB-37). These human cancer cells were treated with solutions of the compounds at decreasing concentrations, starting from 100 μM up to 0.01 μM. The reference compound used for these assays was 5-Fluorouracil (5-Fu), a pyrimidine analogue belonging to the family of antimetabolite. […] Briefly, human colorectal adenocarcinoma cells (CaCo-2 HTB-37^TM Colorectal Adenocarcinoma Human, American Type Culture Collection, Manassas, VA, USA) were grown in Dulbecco’s MEM (DMEM) with 10% heat-inactivated fetal bovine serum, 2 mM L-Alanyl-L-Glutamine, penicillin-streptomycin (50 units-50 μg for mL) and incubated at 37 °C in a humidified atmosphere of 5% CO2, 95% air. CaCo-2 cells were plated in 96 well pates and incubated at 37 °C. The PBn series compounds and 5-FU were prepared as a 1 mM solution in 10 mL with 0.01% DMSO. Then, 24 h after plating, cells were treated with 20 μL of each solution. Untreated cells were used as controls. […] The results were read on a multiwell scanning spectrophotometer (AF2200 plate reader, Eppendorf, Milan, Italy), using a wavelength of 569 nm.

E. coli ATCC25922 = assay: MIC and MBC microtiter plate assay, also with different inocula; type: cell-based, Escherichia coli
A. baumannii ATCC17978 = assay: as above; type: cell-based, Acinetobacter baumannii; conditions: A. baumannii ATCC17978
[1] = tested on: E. faecalis ATCC29212-VSE; assay: MIC and MBC microtiter plate assay; type: cell-based
S.aureus Mu50-VISA = assay: MIC and MBC microtiter plate assay; type: cell-based, Staphylococcus aureus
P. aeruginosa ATCC27853 = assay: MIC microtiter plate assay; type: cell-based, Pseudomonas aeruginosa
K. pneumoniae ATCC700603 = assay: MIC microtiter plate assay; type: cell-based, Klebsiella pneumoniae
S.aureus USA300-CAMRSA = assay: MIC and MBC microtiter plate assay; type: cell-based, Staphylococcus aureus
S.aureus ATCC29213-MSSA = assay: MIC and MBC microtiter plate assay; type: cell-based, Staphylococcus aureus
[2] = tested on: E. faecalis ATCC51299-VRE; assay: MIC and MBC microtiter plate assay, also with different inocula; type: cell-based; conditions: E. faecalis ATCC51299-VRE
S.aureus ATCC12598-MSSA = assay: as above; type: cell-based, Staphylococcus aureus; conditions: S.aureus ATCC12598-MSSA
[3] = tested on: K. pneumoniae ATCC BAA-2814; assay: MIC microtiter plate assay; type: cell-based, Klebsiella pneumoniae; conditions: K. pneumoniae ATCC BAA-2814 (MDR strain)

| MIC (E. coli ATCC25922) | MIC (E. coli ATCC25922; value in brackets) | MIC (A. baumannii ATCC17978) | MIC (A. baumannii ATCC17978; value in brackets) | MIC [1] | MIC ([1]; value in brackets) | MIC (S.aureus Mu50-VISA) | MIC (S.aureus Mu50-VISA; value in brackets) | MIC (P. aeruginosa ATCC27853) | MIC (P. aeruginosa ATCC27853; value in brackets) | MIC (K. pneumoniae ATCC700603) | MIC (K. pneumoniae ATCC700603; value in brackets) | MIC (S.aureus USA300-CAMRSA) | MIC (S.aureus USA300-CAMRSA; value in brackets) | MIC (S.aureus ATCC29213-MSSA) | MIC (S.aureus ATCC29213-MSSA; value in brackets) | MIC [2] | MIC ([2]; value in brackets) | MIC (S.aureus ATCC12598-MSSA) | SMILES | IC50 (CaCo-2 cells) | other results |
| --- | --- | --- | --- | --- | --- | --- | --- | --- | --- | --- | --- | --- | --- | --- | --- | --- | --- | --- | --- | --- | --- |
|  |  |  |  |  |  |  |  |  |  |  |  |  |  |  |  |  |  |  | O=c1[nH]cc(F)c(=O)[nH]1 [5-FU, 5-Fluorouracil, reference compound] | 27.4 µM | IC50 (CaCo-2 cells; Homo sapiens, Caco-2, 24 h): 27.4 µM |
| 16 µg/mL | 38.43 µM | 128 µg/mL | 307.47 µM | 32 µg/mL | 76.87 µM | 32 µg/mL | 76.87 µM | > 128 µg/mL | > 307.47 µM | > 128 µg/mL | > 307.47 µM | 2 µg/mL | 4.80 µM | 4 µg/mL | 9.61 µM | 32 µg/mL | 76.87 µM | 2 µg/mL | CN(C)c1ccc(/C=C/c2ccc3ccccc3[n+]2C)cc1.[I-] [PB1] | 1.2 µM | MIC (S.aureus ATCC12598-MSSA; value in brackets): 4.80 µM; MIC [3]: > 128 µg/mL; MIC ([3]; value in brackets): > 307.47 µM |
| 16 µg/mL | 35.14 µM | 64 µg/mL | 140.55 µM | 32 µg/mL | 70.28 µM | 32 µg/mL | 70.28 µM | > 128 µg/mL | 281.10 µM | > 128 µg/mL | > 281.10 µM | 2 µg/mL | 4.39 µM | 4 µg/mL | 8.78 µM | 32 µg/mL | 70.28 µM | 8 µg/mL | C[n+]1c(/C=C/c2ccc(-c3ccccc3)s2)ccc2ccccc21.[I-] [PB3] | 0.871 µM | MIC (S.aureus ATCC12598-MSSA; value in brackets): 17.57 µM |
